One experiment addresses HPK1 (Homo sapiens (Human), UniProt Q92918). The experiment in a line: HPK1 kinase activity inhibition test (ADP-Glo, luminescence). It counts as biochemical. Conditions: HPK1 5 nM, ATP 2 μM, read-out: IC50, inhibitory effects of compounds on HPK1 kinase activity. Here is the method:
1. HPK1 Kinase Activity Inhibition Test
The kinase activity of HPK1 is manifested as activity of autophosphorylation and phosphorylation of downstream substrates. In the process of autophosphorylation, additional substrates are not required, and ATP is consumed to generate ADP. The amount of the product was measured by ADP-Glo reagent and luminescence method to reflect kinase activity.
Test compounds: compounds prepared in the examples of this application.
Prepare compound stock solution: dissolve the compound to be tested in 100% DMSO to make a 10 mM stock solution;
Prepare 4× Kinase Reaction Buffer:
Prepare 2×HPK1 Kinase Solution:
Dilute the stock solution of the compound to be tested by 5 times with […], make a 4-fold equal dilution in a 96-well dilution plate, add 1 μL of the compound to 49 µL of kinase reaction buffer, and shake on a microplate shaker for 20 minutes. Transfer 2 μL of […] kinase solution to 384 reaction plate, add 1 μL of the test compound to the 384 reaction plate (Greiner, 784075), centrifuge for 1 minute (1000 rpm/min), incubate at 25° C. for 10 minutes. Transfer […] of the 4×ATP mixture to a 384 reaction plate, centrifuge for 1 minute (1000 rpm/mm), and incubate at 25° C. for 60 minutes. In the reaction system, the final concentration of DMSO was […]. Transfer 4 μL of ADP-Glo to a 384 reaction plate, centrifuge for 1 minute (1000 rpm/min), and incubate at 25° C. for 40 minutes. Transfer 8 μL detection solution to a 384 reaction plate, centrifuge for 1 minute (1000 rpm/min), and incubate at 25° C. for 40 minutes. The […] signal was read using a Biotek multi-function plate reader, and the […] (half inhibitory concentration) of the compound was obtained using a four-coefficient nonlinear fitting formula.

The subject of the next experiment is Human Jurkat-E6-1 cells. In words: Measurement of IL-2 secretion of Jurkat cells by ELISA. Conditions: Homo sapiens, Jurkat E6.1, anti-CD3/anti-CD28 stimulation 24 hours, read-out: Percentage of the amount of IL-2 secreted from compound treated/DMSO-treated cells; for activity at 1 µM: test compound 1.0 μM; for activity at 3 µM: test compound 3.0 μM. Format: cell-based. Here is the method: 2. Measurement of IL-2 Secretion of Jurkat Cells by ELISA
Human Jurkat-E6-1 cells were incubated with various concentrations of test compounds for 30 minutes in a humidified incubator at 37° C. and […]. Cells were transferred to cell culture plates pre-coated with anti-human CD3 antibody, then soluble anti-human CD28 antibody was added, and cells were stimulated for 24 hours at 37° C. and 5% CO2 in a humidified incubator. The cell culture medium was collected by centrifugation, and was then transferred to a 96-well transparent microtiter plate (Thermo) pre-coated with anti-human IL-2 antibody, incubated at room temperature for 2 hours, and gently shaken, washed with washing buffer for 4 times, and then followed the ELISA MAX Deluxe Set Human IL-2 (BioLegend) kit procedure, used a microplate reader (Molecular Device, i3X) to read the GD value. The best standard curve was selected by the microplate reader application software, and the corresponding concentration was calculated according to the GD value of the standard. Results are expressed as a percentage of the amount of IL-2 secreted from compound-treated/DMSO-treated cells.

Structures are written as SMILES. Counter-ions that a name gives are not always drawn.

HPK1, sequence (Q92918 whole entry): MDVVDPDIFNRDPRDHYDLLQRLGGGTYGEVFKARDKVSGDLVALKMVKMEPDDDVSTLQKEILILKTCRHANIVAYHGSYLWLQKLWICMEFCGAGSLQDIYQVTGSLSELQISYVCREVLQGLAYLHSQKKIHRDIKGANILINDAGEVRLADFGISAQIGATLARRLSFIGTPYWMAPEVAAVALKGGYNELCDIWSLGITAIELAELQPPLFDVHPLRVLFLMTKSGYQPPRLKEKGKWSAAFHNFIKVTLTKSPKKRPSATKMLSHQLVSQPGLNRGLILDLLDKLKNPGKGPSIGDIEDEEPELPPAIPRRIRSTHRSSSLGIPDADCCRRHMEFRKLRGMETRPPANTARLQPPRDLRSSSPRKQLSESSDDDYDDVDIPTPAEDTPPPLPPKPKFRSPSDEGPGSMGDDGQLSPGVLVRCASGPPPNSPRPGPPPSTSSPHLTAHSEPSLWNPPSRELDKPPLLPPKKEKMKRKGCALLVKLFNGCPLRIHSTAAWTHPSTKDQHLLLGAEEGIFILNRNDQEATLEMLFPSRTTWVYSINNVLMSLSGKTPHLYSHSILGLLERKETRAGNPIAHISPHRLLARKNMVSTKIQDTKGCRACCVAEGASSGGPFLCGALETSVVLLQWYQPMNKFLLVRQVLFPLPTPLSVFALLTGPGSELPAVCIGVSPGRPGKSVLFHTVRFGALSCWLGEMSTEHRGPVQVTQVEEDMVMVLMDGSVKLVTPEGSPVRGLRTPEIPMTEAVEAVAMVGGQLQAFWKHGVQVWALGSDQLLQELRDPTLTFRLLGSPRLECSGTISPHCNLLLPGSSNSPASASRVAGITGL

On to `COc1cccc(F)c1-n1nc2c(-c3cnn(C4CCN(C)CC4)c3)n[nH]c2cc1=O` [Compound 20], for which the IC50 at HPK1 lay within 50 to 500 nM. The activity at 1 µM in the experiment with Human Jurkat-E6-1 cells turned out to be 329%.
Consider `CN1CCN(c2ccc(-c3n[nH]c4cc(=O)n(-c5ccccc5Cl)nc34)cc2)CC1` [Compound 7, 5-(2-chlorophenyl)-3-(4-(4-methylpiperazin-1-yl)phenyl)-1H-pyrazolo[4,3-c]pyridazin-6(5H)-one], for which the IC50 at HPK1 was 50 to 500 nM. For the same compound, the activity at 1 µM in the experiment on Human Jurkat-E6-1 cells is 314%.
In the case of `COc1cccc(F)c1-n1nc2c(-c3ccc(N4CCC(C)(N(C)C)CC4)cc3)n[nH]c2cc1=O` [Compound 147, 3-(4-(4-(dimethylamino)-4-methylpiperidin-1-yl)phenyl)-5-(2-fluoro-6-methoxyphenyl)-1H-pyrazolo[4,3-c]pyridazin-6(5H)-one], the IC50 on HPK1 was at most 50 nM. Further, the activity at 3 µM in the experiment with Human Jurkat-E6-1 cells was determined as 616%.
As to `COc1cccc(F)c1-n1nc2c(-c3cnc(N4CCN(C)CC4)nc3)n[nH]c2cc1=O` [Compound 28, 5-(2-fluoro-6-methoxyphenyl)-3-(2-(4-methylpiperazin-1-yl)pyrimidin-5-yl)-1H-pyrazolo[4,3-c]pyridazin-6(5H)-one], the IC50 on HPK1 is at most 50 nM. In addition, in the experiment with Human Jurkat-E6-1 cells, the activity at 1 µM came to 302%.
Regarding `COc1cc(C(=O)N(C)C)cc(F)c1-n1nc2c(-c3ccc(N4CCN(C)CC4)cc3)n[nH]c2cc1=O` [Compound 80, 3-fluoro-5-methoxy-N,N-dimethyl-4-(3-(4-(4-methylpiperazin-1-yl)phenyl)-6-oxo-1H-pyrazolo[4,3-c]pyridazin-5(6H)-yl)benzamide], the IC50 at HPK1 is at most 50 nM. Also, the activity at 3 µM in the experiment on Human Jurkat-E6-1 cells is 191%.
In the case of `COc1ccccc1-n1nc2c(-c3ccc(N4CCN(C)CC4)cc3)n[nH]c2cc1=O` [Compound 3, 5-(2-methoxyphenyl)-3-(4-(4-methylpiperazin-1-yl)phenyl)-1H-pyrazolo[4,3-c]pyridazin-6(5H)-one], the IC50 at HPK1 is at most 50 nM. Also, in the experiment with Human Jurkat-E6-1 cells, the activity at 1 µM was found to be 211%.
For `CN1CCN(c2ccc(-c3n[nH]c4cc(=O)n(-c5c(O)cccc5F)nc34)cn2)CC1` [Compound 100, 5-(2-fluoro-6-hydroxylphenyl)-3-(6-(4-methylpiperazin-1-yl)pyrid-3-yl)-1H-pyrazolo[4,3-c]pyridazin-6(5H)-one hydrobromide], the IC50 on HPK1 fell in the range of 50 to 500 nM. The activity at 3 µM with Human Jurkat-E6-1 cells is 284%.
The corresponding values for `COCCN1CCN(c2ccc(-c3n[nH]c4cc(=O)n(-c5c(C)cccc5F)nc34)cn2)CC1` [Compound 119, 5-(2-fluoro-6-methylphenyl)-3-(6-(4-(2-methoxyethyl)piperazin-1-yl)pyrid-3-yl)-1H-pyrazolo[4,3-c]pyridazin-6(5H)-one] are at most 50 nM and 531%.
For `COc1cc(C#N)cc(F)c1-n1nc2c(-c3ccc(N4CCN(C5COC5)CC4)cc3)n[nH]c2cc1=O` [Compound 86, 3-fluoro-5-methoxy-4-(3-(4-(4-(oxetan-3-yl)piperazin-1-yl)phenyl)-6-oxo-1H-pyrazolo[4,3-c]pyridazin-5(6H)-yl)benzonitrile], at HPK1, the IC50 is at most 50 nM. The activity at 3 µM with Human Jurkat-E6-1 cells came out at 334%.
In the case of `COc1ccc(-n2nc3c(-c4ccc(N5CCN(C)CC5)cc4)n[nH]c3cc2=O)c(OC)c1` [Compound 25, 5-(2,4-dimethoxyphenyl)-3-(4-(4-methylpiperazin-1-yl)phenyl)-1H-pyrazolo[4,3-c]pyridazin-6(5H)-one], on HPK1, the IC50 lay in the range of 50 to 500 nM. Also, the activity at 1 µM in the experiment on Human Jurkat-E6-1 cells turned out to be 187%.
Consider `CCc1cccc(F)c1-n1nc2c(-c3ccc(N4CCN(CC(C)(C)O)CC4)cc3)n[nH]c2cc1=O` [Compound 116, 5-(2-ethyl-6-fluorophenyl)-3-(4-(4-(2-hydroxyl-2-methylpropyl)piperazin-1-yl)phenyl)-1H-pyrazolo[4,3-c]pyridazin-6(5H)-one], for which the activity at 1 µM in the experiment on Human Jurkat-E6-1 cells was determined as 193%.
Turning to `COc1cccc(F)c1-n1nc2c(-c3ccc(N4CCC(N5CCN(C)CC5)CC4)cc3)n[nH]c2cc1=O` [Compound 145, 5-(2-fluoro-6-methoxyphenyl)-3-(4-(4-(4-methylpiperazin-1-yl)piperidin-1-yl)phenyl)-1H-pyrazolo[4,3-c]pyridazin-6(5H)-one], the IC50 at HPK1 was at most 50 nM. Further, in the experiment with Human Jurkat-E6-1 cells, the activity at 3 µM worked out at 776%.
With `Cc1cc(C#N)cc(F)c1-n1nc2c(-c3ccc4c(c3)CN(C(=O)C(C)O)CC4)n[nH]c2cc1=O` (stereo not shown) [Compound 173, 3-fluoro-4-(3-(2-(2-hydroxylpropionyl)-1,2,3,4-tetrahydroisoquinolin-7-yl)-6-oxo-1H-pyrazolo[4,3-c]pyridazin-5(6H)-yl)-5-methylbenzonitrile], the IC50 on HPK1 fell in the range of 50 to 500 nM.
For the compound `COc1cccc(F)c1-n1nc2c(-c3cccc(N4CCC(N)CC4)c3)n[nH]c2cc1=O` [Compound 205, 3-(3-(4-aminopiperidin-1-yl)phenyl)-5-(2-fluoro-6-methoxyphenyl)-1H-pyrazolo[4,3-c]pyridazin-6(5H)-one], the IC50 on HPK1 is at most 50 nM.
For the compound `Cc1cccc(F)c1-n1nc2c(-c3ccc(CN4CCN(C)CC4=O)cc3)n[nH]c2cc1=O` [Compound 15, 5-(2-fluoro-6-methylphenyl)-3-(4-((4-methyl-2-oxo-piperazin-1-yl)methyl)phenyl)-1H-pyrazolo[4,3-c]pyridazin-6(5H)-one], on HPK1, the IC50 is 500 to 2000 nM.
Take `Cc1cccc(F)c1-n1nc2c(-c3ccc(N4CCN(C)C(C(=O)O)C4)cc3)n[nH]c2cc1=O` (stereo not shown) [Compound 131, 4-(4-(5-(2-fluoro-6-methylphenyl)-6-oxo-5,6-dihydro-1H-pyrazolo[4,3-c]pyridazin-3-yl)phenyl)-1-methylpiperazin-2-carboxylic acid]: the IC50 on HPK1 was 50 to 500 nM.
On to `COc1cc(C#N)cc(F)c1-n1nc2c(-c3cccc(N4CC5CCC(C4)N5C)c3)n[nH]c2cc1=O` [Compound 203, 3-fluoro-5-methoxy-4-(3-(3-(8-methyl-3,8-diazabicyclo[3.2.1]octan-3-yl)phenyl)-6-oxo-1H-pyrazolo[4,3-c]pyridazin-5(6H)-yl)benzonitrile], for which the IC50 on HPK1 is at most 50 nM.
For `COc1cccc(F)c1-n1nc2c(-c3ccc(N4CCN5C(=O)OCC5C4)cc3)n[nH]c2cc1=O` (stereo not shown) [Compound 123, 7-(4-(5-(2-fluoro-6-methoxyphenyl)-6-oxo-5,6-dihydro-1H-pyrazolo[4,3-c]pyridazin-3-yl)phenyl)tetrahydro-1H-oxazolo[3,4-a]pyrazin-3(5H)-one], the IC50 on HPK1 is at most 50 nM.
Regarding `Cc1cccc(F)c1-n1nc2c(-c3ccc4c(c3)CN(C)C4)n[nH]c2cc1=O` [Compound 197, 5-(2-fluoro-6-methylphenyl)-3-(2-methylisoindolin-5-yl)-1H-pyrazolo[4,3-c]pyridazin-6(5H)-one], at HPK1, the IC50 was at most 50 nM.
For the compound `Cc1cccc(F)c1-n1nc2c(-c3ccc(N4CCN5C(=O)OCC5C4)nc3)n[nH]c2cc1=O` (stereo not shown) [Compound 129, 7-(5-(5-(2-fluoro-6-methylphenyl)-6-oxo-5,6-dihydro-1H-pyrazolo[4,3-c]pyridazin-3-yl)pyridin-2-yl)tetrahydro-1H-oxazolo[3,4-a]pyrazin-3(5H)-one], the activity at 3 µM in the experiment with Human Jurkat-E6-1 cells came out at 807%.
With `COc1ccc(-n2nc3c(-c4ccc(C5=CCN(C)CC5)cc4)n[nH]c3cc2=O)c(OC)c1` [Compound 4, 5-(2,4-dimethoxyphenyl)-3-(4-(1-methyl-1,2,3,6-tetrahydropyridin-4-yl)phenyl)-1H-pyrazolo[4,3-c]pyridazin-6(5H)-one], on HPK1, the IC50 is at most 50 nM.
`COc1cccc(F)c1-n1nc2c(-c3ccc(N4CCN(C)CC4)nc3)n[nH]c2cc1=O` [Compound 10]: at HPK1, the IC50 is at most 50 nM.
On the same count and under the same terms, with `Cc1cccc(F)c1-n1nc2c(-c3ccc(N4CC5CC(C4)N5C)cc3)n[nH]c2cc1=O` [Compound 91, 5-(2-fluoro-6-methylphenyl)-3-(4-(6-methyl-3,6-diazabicyclo[3.1.1]heptan-3-yl)phenyl)-1H-pyrazolo[4,3-c]pyridazin-6(5H)-one] the figure was at most 50 nM.

The record behind these values is patent publication US20230322789A1, “PYRAZOLOPYRIDAZINONE COMPOUND, AND PHARMACEUTICAL COMPOSITION AND USE THEREOF” (BroadenBio Co., Ltd., priority 2020, published 2023).
